US20240309015A1, “Methods for the Treatment of Fibrotic Disease” (SHY Therapeutics, LLC, priority 2021, published 2024)

Assays:
Rho-A = experiment: Ras GTP Binding Domain Inhibition Assay, Rho-A; conditions: at 20 μM
Method in brief: (§1)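 Ni-plate-captured His-tagged GTPase (10-30 μg/mL, o/n 4° C); cpd 20 μM or serial dilution (IC50), 1% DMSO, 3 h RT; optional Sos 556-1049 His-tag (10-30 μg/mL) last hour. Cy3- or Cy5-GTP 100 nM, 45 min RT, 3× wash, fluorescence read.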

KRas wild type = experiment: Ras GTP Binding Domain Inhibition Assay, KRas wild type; conditions: at 20 μM
Method in brief: as §1

KRas G12D mutant = experiment: Ras GTP Binding Domain Inhibition Assay, KRas G12D mutant; conditions: at 20 μM; for KRas G12D mutant + SOS: % inh.: with SOS; for KRas G12D mutant: % inh.: without SOS
Method in brief: as §1

Smad2/3 phosphorylation = experiment: Phospho-Smad2/3 Inhibition Assay in PANC-1; format: cell-based; conditions: Homo sapiens, western blot
Method in brief: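 Serum-starved cells (0.5% FBS overnight) pretreated 3 h at 37 °C with compound at 10 μM or serial dilutions for IC50, in 0.3% DMSO. TGF-b1 10 ng/ml stimulation: 1 h for Panc-1 (human), 20 min for C2C12 (mouse). Phospho-Smad2 (Ser465/467) and phospho-Smad3 (Ser423/425) measured by western blot of lysates.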

CO[C@H]1CC[C@@H](Nc2nc(-c3nccn3C)nc3sc(-c4ccn(C)n4)c(-c4ccccc4)c23)C1 (racemic) [Compound 5, rac-N-((1R,3S)-3-Methoxycyclopentyl)-2-(1-methyl-1H-imidazol-2-yl)-6-(1-methyl-1H-pyrazol-3-yl)-5-phenylthieno[2,3-d]pyrimidin-4-amine]
Rho-A + SOS: % inh. (Rho-A; with SOS): D (D = 76-100% inhibition)
Rho-A: % inh. (Rho-A; without SOS): C (C = 46-75% inhibition)
KRas wild type + SOS: % inh. (KRas wild type; with SOS): D (D = 76-100% inhibition)
KRas wild type: % inh. (KRas wild type; without SOS): B (B = 26-45% inhibition)
KRas G12D mutant + SOS: % inh. (KRas G12D mutant; Table 7): C (C = 46-75% inhibition)
KRas G12D mutant + SOS: % inh. (KRas G12D mutant; Table 8): C (C = 46-75% inhibition)
KRas G12D mutant: % inh. (KRas G12D mutant; Table 7): A (A = 1-25% inhibition)
KRas G12D mutant: % inh. (KRas G12D mutant; Table 8): A (A = 1-25% inhibition)
inhibition at 10 µM (Smad2/3 phosphorylation; 10 μM compound, 3 h, TGF-b1 stimulated PANC-1, read-out: % inh of Smad2/3 phosphorylation in PANC-1): 76 to 100%
IC50 (Smad2/3 phosphorylation; PANC-1, TGF-b1 stimulated): 5 to 10 µM
